In PubChem BioAssay (NCI) one finds TGI data, which are given here for 15 molecules.

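Following 48 hours of exposure in 96-well plates, responses at five concentrations were used to interpolate endpoints linearly. Definition used: TGI = concentration required for complete inhibition of growth.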

The subject of one experiment is SK-MEL-28 melanoma. In words: inhibition of tumour cell growth, NCI panel, 48 h.
`O=C(/C=C/c1csc(-c2ccccc2)n1)NCc1ccc(C(=O)NCCc2ccccc2)cc1` yielded a TGI of over 100 µM.
`CC12CCC(CC1=O)C2(C)CCC(N)=O` (configuration not stated) returned a TGI of over 100 µM.
Take `[N-]=[N+]=Nc1c(C=O)c(=O)n2c3c(cccc13)CCC2`: the TGI is 27.2 µM.
Molecule `CC(C)(Br)C(Br)CCC(C)(Br)C(Br)CO` (configuration not stated) returned a TGI of over 10 µM.
Consider `COc1ccc(/C=C2\C(=O)N(C3OC(COC(C)=O)C(OC(C)=O)C(OC(C)=O)C3OC(C)=O)c3ccccc3N=C2N)cc1` (configuration not stated), for which the TGI amounted to 72.2 µM.
Turning to `COC12OC3(C4OC41)C(C(=O)O[C@H]3CO[Si](C)(C)C(C)(C)C)C2C(=O)Oc1ccccc1` (some centres not stated), the TGI is over 100 µM.
For the molecule `COc1ccc(OCc2nc3cc(C(F)(F)F)ccc3nc2-c2ccccc2)cc1`, the TGI was over 100 µM.
`N=c1oc2cc(O)ccc2cc1C(=O)NCc1ccccc1` yielded a TGI of over 100 µM.
In the case of `COc1cc(/C=C/C(=O)c2ccc(NS(=O)(=O)c3cc([N+](=O)[O-])ccc3C)cc2)cc(OC)c1OC`, the TGI amounted to 25 µM.
Regarding `O=C(Cc1ccccc1)NNc1nc(NNC(=O)c2ccncc2)nc(Nc2ccc([N+](=O)[O-])cc2)n1`, the TGI is over 10 µM.
The molecule `CSc1ncc2c(C#N)c3sc4ccccc4n3c(=O)c2n1` yielded a TGI of over 100 µM.

For another experiment, the system named is SK-MEL-5 melanoma. The experiment is described as follows: inhibition of tumour cell growth, NCI panel, 48 h.
Molecule `COc1ccc2c(C)cc(N/N=C(\C)C=O)nc2c1` yielded a TGI of 26.7 µM.
The same measure, in the same setting: next, `O=C(c1cccc2ccccc12)C1(Br)S(=O)(=O)OCCOS1(=O)=O`: over 100 µM; `O=C(/C=C/c1csc(-c2ccccc2)n1)NCc1ccc(C(=O)NCCc2ccccc2)cc1`: over 100 µM; `CC12CCC(CC1=O)C2(C)CCC(N)=O` (configuration not stated): over 100 µM.
On to `[N-]=[N+]=Nc1c(C=O)c(=O)n2c3c(cccc13)CCC2`, for which the TGI was 27.5 µM.
On to `CC(C)(Br)C(Br)CCC(C)(Br)C(Br)CO` (configuration not stated), for which the TGI is over 10 µM.
Turning to `COc1ccc(/C=C2\C(=O)N(C3OC(COC(C)=O)C(OC(C)=O)C(OC(C)=O)C3OC(C)=O)c3ccccc3N=C2N)cc1` (configuration not stated), the TGI is 23.4 µM.
In turn, `COC12OC3(C4OC41)C(C(=O)O[C@H]3CO[Si](C)(C)C(C)(C)C)C2C(=O)Oc1ccccc1` (some centres not stated) displayed a TGI of over 100 µM.
Turning to `COc1ccc(OCc2nc3cc(C(F)(F)F)ccc3nc2-c2ccccc2)cc1`, the TGI is over 100 µM.
Still for that read-out and setting: next, `N=c1oc2cc(O)ccc2cc1C(=O)NCc1ccccc1`: 29.5 µM; `COc1cc(/C=C/C(=O)c2ccc(NS(=O)(=O)c3cc([N+](=O)[O-])ccc3C)cc2)cc(OC)c1OC`: 15.4 µM.
The molecule `O=C(Cc1ccccc1)NNc1nc(NNC(=O)c2ccncc2)nc(Nc2ccc([N+](=O)[O-])cc2)n1` yielded a TGI of over 10 µM.
`CSc1ncc2c(C#N)c3sc4ccccc4n3c(=O)c2n1`: the TGI is over 100 µM.
In the case of `CCOC(=O)c1ccc(N=C2C(=S)N(c3ccc(C(=O)OCC)cc3)C(=N)N2/N=C/c2ccccc2)cc1`, the TGI was determined as 35.6 µM.

The test system of a further experiment is SW-620 colon. In words: inhibition of tumour cell growth, NCI panel, 48 h.
The molecule `COc1ccc2c(C)cc(N/N=C(\C)C=O)nc2c1` displayed a TGI of 27.5 µM.
Still for that read-out and setting: next, `O=C(/C=C/c1csc(-c2ccccc2)n1)NCc1ccc(C(=O)NCCc2ccccc2)cc1`: over 100 µM; `CC12CCC(CC1=O)C2(C)CCC(N)=O` (configuration not stated): over 100 µM.
The molecule `[N-]=[N+]=Nc1c(C=O)c(=O)n2c3c(cccc13)CCC2` showed a TGI of 2.87 µM.
For the molecule `CC(C)(Br)C(Br)CCC(C)(Br)C(Br)CO` (configuration not stated), the TGI is over 10 µM.
Turning to `COc1ccc(/C=C2\C(=O)N(C3OC(COC(C)=O)C(OC(C)=O)C(OC(C)=O)C3OC(C)=O)c3ccccc3N=C2N)cc1` (configuration not stated), the TGI was over 100 µM.
On to `COC12OC3(C4OC41)C(C(=O)O[C@H]3CO[Si](C)(C)C(C)(C)C)C2C(=O)Oc1ccccc1` (some centres not stated), for which the TGI was over 100 µM.
`COc1ccc(OCc2nc3cc(C(F)(F)F)ccc3nc2-c2ccccc2)cc1` had a TGI of over 100 µM.
Still for that read-out and setting: the same measure for `N=c1oc2cc(O)ccc2cc1C(=O)NCc1ccccc1`: 81.6 µM.
The molecule `COc1cc(/C=C/C(=O)c2ccc(NS(=O)(=O)c3cc([N+](=O)[O-])ccc3C)cc2)cc(OC)c1OC` returned a TGI of 25.5 µM.
Regarding `O=C(Cc1ccccc1)NNc1nc(NNC(=O)c2ccncc2)nc(Nc2ccc([N+](=O)[O-])cc2)n1`, the TGI was over 10 µM.
As for `NC(=O)N/N=C1\CCCCc2ccccc21`, the TGI is over 10 µM.
In turn, `CSc1ncc2c(C#N)c3sc4ccccc4n3c(=O)c2n1` registered a TGI of over 100 µM.

The next experiment concerns U251 CNS. In words: inhibition of tumour cell growth, NCI panel, 48 h.
`COc1ccc2c(C)cc(N/N=C(\C)C=O)nc2c1` showed a TGI of 30.4 µM.
Molecule `O=C(c1cccc2ccccc12)C1(Br)S(=O)(=O)OCCOS1(=O)=O` yielded a TGI of over 100 µM.
`O=C(/C=C/c1csc(-c2ccccc2)n1)NCc1ccc(C(=O)NCCc2ccccc2)cc1` registered a TGI of over 100 µM.
With `CC12CCC(CC1=O)C2(C)CCC(N)=O` (configuration not stated), the TGI was over 100 µM.
The molecule `[N-]=[N+]=Nc1c(C=O)c(=O)n2c3c(cccc13)CCC2` gave a TGI of 19.5 µM.
Take `CC(C)(Br)C(Br)CCC(C)(Br)C(Br)CO` (configuration not stated): the TGI was over 10 µM.
Same read-out and setting: the same measure for `COc1ccc(/C=C2\C(=O)N(C3OC(COC(C)=O)C(OC(C)=O)C(OC(C)=O)C3OC(C)=O)c3ccccc3N=C2N)cc1` (configuration not stated): over 100 µM; for `COC12OC3(C4OC41)C(C(=O)O[C@H]3CO[Si](C)(C)C(C)(C)C)C2C(=O)Oc1ccccc1` (some centres not stated): over 100 µM; for `COc1ccc(OCc2nc3cc(C(F)(F)F)ccc3nc2-c2ccccc2)cc1`: over 100 µM.
Regarding `N=c1oc2cc(O)ccc2cc1C(=O)NCc1ccccc1`, the TGI is over 100 µM.
Molecule `COc1cc(/C=C/C(=O)c2ccc(NS(=O)(=O)c3cc([N+](=O)[O-])ccc3C)cc2)cc(OC)c1OC` had a TGI of 13.7 µM.
The same measure, in the same setting: the same measure for `O=C(Cc1ccccc1)NNc1nc(NNC(=O)c2ccncc2)nc(Nc2ccc([N+](=O)[O-])cc2)n1`: over 10 µM; for `NC(=O)N/N=C1\CCCCc2ccccc21`: over 10 µM.
`CSc1ncc2c(C#N)c3sc4ccccc4n3c(=O)c2n1` came in with a TGI of over 100 µM.

For the next experiment, the system named is UO-31 renal. The experiment is described as follows: inhibition of tumour cell growth, NCI panel, 48 h.
`COc1ccc2c(C)cc(N/N=C(\C)C=O)nc2c1`: the TGI is 26.4 µM.
`O=C(c1cccc2ccccc12)C1(Br)S(=O)(=O)OCCOS1(=O)=O` registered a TGI of over 100 µM.
Take `O=C(/C=C/c1csc(-c2ccccc2)n1)NCc1ccc(C(=O)NCCc2ccccc2)cc1`: the TGI is over 100 µM.
Turning to `CC12CCC(CC1=O)C2(C)CCC(N)=O` (configuration not stated), the TGI is over 100 µM.
The same measure, in the same setting: the same measure for `[N-]=[N+]=Nc1c(C=O)c(=O)n2c3c(cccc13)CCC2`: 6.39 µM; for `CC(C)(Br)C(Br)CCC(C)(Br)C(Br)CO` (configuration not stated): over 10 µM.
The molecule `COc1ccc(/C=C2\C(=O)N(C3OC(COC(C)=O)C(OC(C)=O)C(OC(C)=O)C3OC(C)=O)c3ccccc3N=C2N)cc1` (configuration not stated) displayed a TGI of over 100 µM.
`COC12OC3(C4OC41)C(C(=O)O[C@H]3CO[Si](C)(C)C(C)(C)C)C2C(=O)Oc1ccccc1` (some centres not stated) came in with a TGI of over 100 µM.
On to `COc1ccc(OCc2nc3cc(C(F)(F)F)ccc3nc2-c2ccccc2)cc1`, for which the TGI is over 100 µM.
On the same count and under the same terms, the same measure for `N=c1oc2cc(O)ccc2cc1C(=O)NCc1ccccc1`: over 100 µM; for `COc1cc(/C=C/C(=O)c2ccc(NS(=O)(=O)c3cc([N+](=O)[O-])ccc3C)cc2)cc(OC)c1OC`: 30.4 µM.
The same measure, in the same setting: the same measure for `O=C(Cc1ccccc1)NNc1nc(NNC(=O)c2ccncc2)nc(Nc2ccc([N+](=O)[O-])cc2)n1`: over 10 µM.
As to `NC(=O)N/N=C1\CCCCc2ccccc21`, the TGI is over 10 µM.
`CSc1ncc2c(C#N)c3sc4ccccc4n3c(=O)c2n1` returned a TGI of over 100 µM.
Molecule `CCOC(=O)c1ccc(N=C2C(=S)N(c3ccc(C(=O)OCC)cc3)C(=N)N2/N=C/c2ccccc2)cc1` had a TGI of 28.9 µM.
